Test results taken from patent US8178552B2, “7-Azaindole derivatives and their use in the inhibition of c-Jun N-terminal kinase” (Eisai R&D Management Co., Ltd., priority 2008, dated 2012).

What was measured:
panel of 100 kinases = assay: Selectivity against a panel of 100 kinases (Upstate/Millipore), expressed as Gini coefficient; type: biochemical; details: calculated from remaining activity at 1 micromolar compound, 10 micromolar ATP, 0 = non-selective, 1 = perfect selectivity
Method: Inhibitory potency of compounds (I) at a concentration of 1 micromolar and with ATP concentration of 10 micromolar was determined at Upstate/Millipore against a panel of 100 kinases representing all major families within the kinome. The results are presented in Table 3 and are expressed as percentage of remaining activity.
For comparison purposes Table 4 contains the relevant inhibitory data for reference compounds A-K containing a (hetero)aromatic ring at C(5) of the 7-azaindole system.
Selectivity of compounds according to the present invention and reference compounds expressed as Gini coefficient (J. Med. Chem. 2007, 50, 5773-5779) is shown in Table 5. The individual Gini coefficients have been calculated using the data in Tables 3 and 4. Value Gini=0 corresponds to a totally non-selective compound; value Gini=1 reflects perfect selectivity (inhibition of a single target only)

JNK2 = JNK2 (Homo sapiens, UniProt P45984); assay: JNK2 SPA assay; type: biochemical; details: 3.33 μM ATP, GST-c-Jun substrate
JNK2, sequence (P45984 whole entry, species assumed): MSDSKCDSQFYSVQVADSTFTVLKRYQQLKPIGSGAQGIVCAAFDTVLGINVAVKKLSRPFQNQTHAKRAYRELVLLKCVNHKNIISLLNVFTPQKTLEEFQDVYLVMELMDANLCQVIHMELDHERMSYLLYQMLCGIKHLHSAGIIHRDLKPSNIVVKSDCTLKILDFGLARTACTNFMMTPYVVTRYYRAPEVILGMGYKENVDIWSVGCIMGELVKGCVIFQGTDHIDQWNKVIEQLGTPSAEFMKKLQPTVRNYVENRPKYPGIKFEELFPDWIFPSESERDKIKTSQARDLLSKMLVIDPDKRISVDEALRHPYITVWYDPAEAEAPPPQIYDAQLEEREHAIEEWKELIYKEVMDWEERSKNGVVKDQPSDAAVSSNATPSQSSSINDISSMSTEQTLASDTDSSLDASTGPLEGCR
Method: (§1) JNK1, JNK2, JNK3—SPA Assay
(§2) JNK1, JNK2, JNK3—SPA Assay • 1. Compound is dissolved in DMSO to a convenient concentration and this is diluted in 10% DMSO to a five times concentrate of the desired starting concentration (frequently 1:100). • 2. 10 μl of 500 mM EDTA is added to alternative wells of the Opti-plate row, which will receive kinase reaction plus DMSO. This creates the negative control. • 3. For the JNK2 and JNK3 assay, compounds are prepared in six 2-fold dilutions with water and each concentration is tested in duplicate. For the JNK1 assay compounds are prepared in four 5-fold dilutions with water which are tested in triplicate. Controls are treated identically. • 4. 20 μl per well of each compound concentration is transferred to an Opti-plate, in duplicate. • 5. 30 μl (JNK2/3 SPA) or 50 μl (JNK1 SPA) of substrate solution (25 mM HEPES pH 7.5, 10 mM magnesium acetate with 3.33 μM ATP (JNK2/3) or 2 μM ATP (JNK1), approximately 7.5 kBq [γ-^33P] ATP, GST-c-Jun, in water) is added to each well. • 6. 50 μl (JNK2/3 SPA) or 30 μl (JNK1 SPA) of kinase solution (JNK in 25 mM HEPES pH 7.5, 10 mM Mg Acetate) is added to each well.
(§3) • 7. The plate is incubated for 30 minutes at room temperature. • 8. […] Plates are sealed and incubated for 30 minutes at room temperature, centrifuged for 10 minutes at 2500 g and counted. • 10. […]

JNK1 = JNK1 (Homo sapiens, UniProt P45983); assay: JNK1 SPA assay; type: biochemical; details: 2 μM ATP, GST-c-Jun substrate
JNK1, sequence (P45983 whole entry, species assumed): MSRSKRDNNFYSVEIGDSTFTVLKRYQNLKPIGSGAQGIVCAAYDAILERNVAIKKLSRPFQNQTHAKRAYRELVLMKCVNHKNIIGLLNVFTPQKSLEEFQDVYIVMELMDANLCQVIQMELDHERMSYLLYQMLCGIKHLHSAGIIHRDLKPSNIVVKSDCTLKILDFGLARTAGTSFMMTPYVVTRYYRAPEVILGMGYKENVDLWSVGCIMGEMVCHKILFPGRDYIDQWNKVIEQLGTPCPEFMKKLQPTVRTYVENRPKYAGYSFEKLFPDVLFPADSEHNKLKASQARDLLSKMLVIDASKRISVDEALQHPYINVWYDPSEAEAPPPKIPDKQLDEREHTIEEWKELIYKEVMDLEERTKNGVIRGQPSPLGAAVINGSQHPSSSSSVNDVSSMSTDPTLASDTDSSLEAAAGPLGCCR
Method: as §1, §2, §3

JNK3 = JNK3 (Homo sapiens, UniProt P53779); assay: JNK3 SPA assay; type: biochemical; details: 3.33 μM ATP, GST-c-Jun substrate; read-out: IC50 against JNK3
JNK3, sequence (P53779 whole entry, species assumed): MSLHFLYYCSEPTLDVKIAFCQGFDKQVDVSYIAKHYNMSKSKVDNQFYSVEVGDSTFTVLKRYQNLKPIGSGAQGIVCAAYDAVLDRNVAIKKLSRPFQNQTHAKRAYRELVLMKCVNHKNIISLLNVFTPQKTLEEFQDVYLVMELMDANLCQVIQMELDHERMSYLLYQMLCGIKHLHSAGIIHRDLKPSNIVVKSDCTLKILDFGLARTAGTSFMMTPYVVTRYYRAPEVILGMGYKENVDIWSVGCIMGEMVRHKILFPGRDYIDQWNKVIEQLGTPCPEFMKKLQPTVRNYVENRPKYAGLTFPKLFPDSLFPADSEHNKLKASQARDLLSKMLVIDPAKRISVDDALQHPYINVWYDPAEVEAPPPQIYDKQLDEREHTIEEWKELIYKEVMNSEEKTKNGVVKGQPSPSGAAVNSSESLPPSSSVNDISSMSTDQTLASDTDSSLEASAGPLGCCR
How it was run: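 Radiometric SPA using GST-c-Jun with [γ-33P]ATP in 25 mM HEPES pH 7.5 and 10 mM Mg acetate; the substrate solution held 3.33 µM ATP (JNK2/3) or 2 µM ATP (JNK1). Reactions ran 30 min at room temperature and were stopped with glutathione SPA beads plus 40 mM ATP. IC50 is the concentration halving c-Jun phosphorylation versus control.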

TNFα = assay: LPS-induced TNFα suppression in mice (plasma TNFα, ELISA); type: in vivo, male C57/B16 mice; details: Mus musculus, po; 20 mg/kg p.o. 30 min before LPS 10 mg/kg i.p.; 1 hour after LPS; versus vehicle-treated animals; read-out: Percentage reduction in the level of TNFα in plasma
Method: (§4) The studies were carried out in male C57/B16 mice. Compounds (20 mg/kg; p.o.) were administered 30 minutes before injection of lipopolysaccharide (LPS). LPS was administered intraperitoneally at a dose of 10 mg/kg. Animals were sacrificed 1 hour following LPS injection. Blood was collected into heparinized tubes for measurement of plasma TNFα levels and spleens were collected for the measurement of c-Jun phosphorylation. Plasma TNFα was measured using an ELISA kit purchased from R&D systems. Spleens were homogenised, extracted in high salt (250 mM NaCl) lysis buffer with phosphatase inhibitors and c-Jun phosphorylation was measured using HTRF. The suppressive effect of compounds was calculated as the percentage reduction of the TNFα level in plasma and P-c-Jun level in spleen as compared with the vehicle-treated animals.

c-Jun phosphorylation = assay: LPS-induced c-Jun phosphorylation in spleen of mice (HTRF); type: in vivo, male C57/B16 mice; details: Mus musculus, po; 20 mg/kg p.o. 30 min before LPS 10 mg/kg i.p.; 1 hour after LPS; versus vehicle-treated animals; read-out: Percentage reduction in the level of P-c-Jun in spleen
Method: as §4

MOG (35-55)-induced EAE = assay: MOG (35-55)-induced experimental autoimmune encephalomyelitis (EAE) in mice; type: in vivo, C57/B16J mice; details: 20 mg/kg, p.o., once daily, from appearance of symptoms

Compound | Gini coefficient, reference compounds, aromatic C(5) group (panel of 100 kinases) | IC50 (JNK3) [nM] | inhibition in vivo at 20 mg/kg (TNFα) [%] | inhibition in vivo at 20 mg/kg (c-Jun phosphorylation) [%] | further results
CN1CCC(c2csc(-c3cnc4[nH]cc(-c5cnn(C)c5)c4c3)n2)CC1 [E] | 0.3757 |  |  |  | 
CN1CCN(C(=O)c2nc(-c3c[nH]c4ncc(-c5ccc(N6CCN(C)CC6)cc5)cc34)cs2)CC1 [J] | 0.3286 |  |  |  | 
CN(C)C(=O)c1nc(-c2c[nH]c3ncc(-c4ccccc4)cc23)cs1 [G] | 0.3501 |  |  |  | 
CN1CCN([C@H]2CC[C@H](c3cnc4[nH]cc(-c5cnn(C)c5)c4c3)CC2)CC1 [compound 25] |  |  |  |  | IC50 (JNK2): 245 nM; IC50 (JNK1): 191 nM; Gini coefficient, compounds (I), non-aromatic C(5) group (panel of 100 kinases): 0.6769
CC1CCC(c2cnc3[nH]cc(-c4cnn(C)c4)c3c2)CC1 (stereo not drawn) [compound 3] |  |  |  |  | IC50 (JNK2): 501 nM; IC50 (JNK1): 178 nM
Cn1cc(-c2c[nH]c3ncc([C@H]4CC[C@H](N5CCOCC5)CC4)cc23)cn1 [Compound I-6, 4-((1r,4r)-4-(3-(1-methyl-1H-pyrazol-4-yl)-1H-pyrrolo[2,3-b]pyridin-5-yl)cyclohexyl)morpholine] |  | 80 | 82 | 41 | total white matter area in the lumbar spinal cord (MOG (35-55)-induced EAE; FIG. 10): preservation; neuronal numbers in the ventral horn of the lumbar spinal cords (MOG (35-55)-induced EAE; FIG. 11): preservation; demyelination in the lumbar spinal cord (MOG (35-55)-induced EAE; FIG. 12): decrease
CN(C)c1ccc(-c2cnc3[nH]cc(-c4cn[nH]c4)c3c2)cc1 [A] | 0.3368 |  |  |  | 
CC(C)N1CCN([C@H]2CC[C@H](c3cnc4[nH]cc(-c5cnn(C)c5)c4c3)CC2)CC1 [Compound I-43, 5-((1r,4r)-4-(4-isopropylpiperazin-1-yl)cyclohexyl)-3-(1-methyl-1H-pyrazol-4-yl)-1H-pyrrolo[2,3-b]pyridine] |  | 117 | 74 | 0 | 
Cn1cc(-c2c[nH]c3ncc([C@H]4CC[C@H](N5CCCC5)CC4)cc23)cn1 [Compound I-24, 3-(1-methyl-1H-pyrazol-4-yl)-5-((1r,4r)-4-(pyrrolidin-1-yl)cyclohexyl)-1H-pyrrolo[2,3-b]pyridine] |  | 83 | 57 | 23 | 
CN1CCCN([C@H]2CC[C@H](c3cnc4[nH]cc(-c5cnn(C)c5)c4c3)CC2)CC1 [Compound I-37, 5-((1r,4r)-4-(4-methyl-1,4-diazepan-1-yl)cyclohexyl)-3-(1-methyl-1H-pyrazol-4-yl)-1H-pyrrolo[2,3-b]pyridine] |  | 69 | 51 | -3 | 
Cn1cc(-c2c[nH]c3ncc([C@H]4CC[C@H](N5CCCOCC5)CC4)cc23)cn1 [Compound I-40, 4-((1r,4r)-4-(3-(1-methyl-1H-pyrazol-4-yl)-1H-pyrrolo[2,3-b]pyridin-5-yl)cyclohexyl)-1,4-oxazepane] |  | 129 | 61 | 35 | 
Cn1cc(-c2c[nH]c3ncc([C@H]4CC[C@@H](N5CCCOCC5)CC4)cc23)cn1 [Compound I-39, 4-((1s,4s)-4-(3-(1-methyl-1H-pyrazol-4-yl)-1H-pyrrolo[2,3-b]pyridin-5-yl)cyclohexyl)-1,4-oxazepane] |  | 184 | 67 | 10 | 
Cn1cc(-c2c[nH]c3ncc(C4=CC5CCC4C5)cc23)cn1 (stereo not drawn) [Compound I-136, 5-(bicyclo[2.2.1]hept-2-en-2-yl)-3-(1-methyl-1H-pyrazol-4-yl)-1H-pyrrolo[2,3-b]pyridine] |  | 76 | 87 | 42 | 
